From US20210353595A1, “USE OF MELATONIN IN PREPARATION OF MEDICAMENT FOR INHIBITING AND/OR KILLING BACTERIUM” (priority 2020, published 2021)

How the values were obtained:
[1] = system: Pasteurella multocida; assay: Growth curve with melatonin and citric acid; type: cell-based; conditions: MT 1-3 mg/mL with CA 1-3 mg/mL, 12 h; FIG. 17
Description: 1 mL of Pasteurella multocida (1×10^9 CFU) at the logarithmic growth stage was also added into 100 mL of fresh and sterile Martin broth medium containing different concentrations of melatonin and citric acid (CA) (MT-1 mg/mL, MT-1 mg/mL-CA-1 mg/mL, MT-1 mg/mL-CA-2 mg/mL, MT-1 mg/mL-CA-3 mg/mL; MT-2 mg/mL, MT-2 mg/mL-CA-1 mg/mL, MT-2 mg/mL-CA-2 mg/mL, MT-2 mg/mL-CA-3 mg/mL; MT-3 mg/mL, MT-3mg/mL-CA-1 mg/mL, MT-3 mg/mL-CA-2 mg/mL, and MT-3 mg/mL-CA-3 mg/mL). DMSO not containing melatonin and citric acid was used as a solvent control group, and the bacterial cells were cultured in a constant-temperature shaker at 37° C. and 220 rpm for 12 h. Then the growth curve of the cells were determined. Each experiment was carried out for three times, and each group was set in triplicate.

[2] = system: Pasteurella multocida; assay: Growth curve with exogenous citric acid; type: cell-based; conditions: citric acid 1, 2, 3 mg/mL alone; FIG. 16
Description: Here, 1 mL of Pasteurella multocida (1×10^9 CFU) at the logarithmic growth stage was added into 100 mL of fresh and sterile Martin broth medium containing different concentrations of citric acid (CA-1 mg/ml, CA-2 mg/mL, and CA-3 mg/mL), and citric acid-free DMSO was used as a solvent control group. The bacterial cells were cultured in a constant-temperature shaker at 37° C. and 220 rpm for […]. Then, the growth curve of the cells was determined. Each experiment was repeated for three times, and each group was set in triplicate.

[3] = system: P. multocida cells; assay: SEM and TEM morphology of bacterial cells; type: cell-based, Pasteurella multocida; conditions: combined action of melatonin and citric acid; FIG. 18
Description: The effect of melatonin on the morphologies of P. multocida cells were evaluated employing SEM and TEM. 1 mL of fresh Pasteurella multocida (1×10^9 CFU) at the logarithmic growth stage was added into 100 mL of fresh Martin liquid medium containing different concentrations (1, 2 or 3 mg/mL) of MT. MT-free DMSO was used as a solvent control group and ampicillin (100 μg/mL) was used as a positive control group. All cultures were shaken at 220 rpm in a shaker at 37° C. for 8 hours, 12 hours or 16 hours. The bacterial samples were centrifuged at 3000 r/min for 10 minutes, the supernatant was removed, and cells were collected and washed with PBS for 3 times. Then the cells were fixed with a fixation solution of 2.5% fresh glutaraldehyde for 6 hours, and washed with PBS for 3 times, each time for 10 minutes. Subsequently, the SEM samples were dehydrated with 50%, 70%, 80% and 90% ethanol for 15 minutes respectively, and then dehydrated with 100% ethanol for 3 times, each time for 30 minutes. Ethanol was removed by washing with tert-butyl alcohol for three times, each time for 30 minutes. The samples were dried by a freeze dryer and plated with 10 nm of gold film by an ion sputtering device. The samples were examined using a field scanning electron microscope (FESEM, Hitch SU8010).
The TEM samples were fixed with 1%-2% […] for 2-3 hours, and washed with […] 3 times, each time for 10 minutes. The samples were dehydrated with 30%, 50%, 70%, 80% and 90% ethanol for 20 minutes respectively, and then dehydrated with 100% ethanol 3 times, each time for 30 minutes. Ethanol was replaced with acetone three times, each time for 30 minutes. The bacterial samples were placed on a copper grid with a formvar membrane, and negatively stained with phosphotungstic acid (2% v/v, pH=6.7). The surface area of the sample was less than 0.2 mm×0.2 mm, and slice thickness was between 50 and 90 nm (Lycra UC7). The samples were detected by TEM (Hitachi H-7650) at 80 kV, and photographs of the samples were taken by a Gatan832 CCD camera (Gatan). […]

[4] = system: Pasteurella multocida; assay: Leakage of cell contents with melatonin and citric acid; type: cell-based; conditions: MT with CA (1/1, 2/2, 3/3 mg/mL), 12 h
Description: Additionally, 1 mL of Pasteurella multocida (1×10^9 CFU) at the logarithmic growth stage was added into 100 mL of fresh and sterile Martin broth medium containing different concentrations of melatonin and citric acid (CA) (MT-1 mg/mL, MT-2 mg/mL, MT-3 mg/mL, CA-1 mg/mL, CA-2 mg/mL, CA-3 mg/mL, MT-1 mg/mL-CA-1 mg/mL, MT-2 mg/mL-CA-2 mg/mL, MT-3 mg/mL-CA-3 mg/mL). The melatonin-free DMSO was used as a solvent control group, and the bacterial cells were cultured in a shaker at 37° C. and 220 rpm for 12 h. Thereafter, 1 mL of the bacterial solution was taken and centrifuged at 3000 r/min for 10 minutes, and the supernatant and precipitated cells were collected, respectively. At the same time, 2.5 mmol/mL of […] (ONPG) and Pasteurella multocida were added to detect ([…]. The concentrations of protein, alkaline phosphatase (AKP) and reducing sugar in the supernatant were determined sequentially using respective determination kits. The β-galactosidase in the supernatant was determined by measuring the optical density at 420 nm (OD420). Each experiment was carried out for three times, and each group was set in triplicate.

[5] = system: Pseudomonas aeruginosa; assay: Growth curve with melatonin and citric acid; type: cell-based; conditions: MT 1-3 mg/mL with CA 1-3 mg/mL, FIG. 27
Description: (§1) In additional studies, 1 mL of Klebsiella pneumoniae, Pseudomonas aeruginosa, Diplococcus pneumoniae and Streptococcus pneumoniae at the logarithmic growth stage was added into 100 mL of fresh and sterile Martin broth medium containing different concentrations of melatonin and citric acid (CA) (MT-1 mg/mL, MT-1 mg/mL-CA-1 mg/mL, MT-1 mg/mL-CA-2 mg/mL, MT-1 mg/mL-CA-3 mg/mL; MT-2 mg/mL, MT-2 mg/mL-CA-1 mg/mL, MT-2 mg/mL-CA-2 mg/mL, MT-2 mg/mL-CA-3 mg/mL; MT-3 mg/mL, MT-3 mg/mL-CA-1 mg/mL, MT-3 mg/mL-CA-2 mg/mL MT-3 mg/mL-CA-3 mg/mL).

[6] = system: Klebsiella pneumoniae; assay: Growth curve with melatonin and citric acid; type: cell-based; conditions: MT 1-3 mg/mL with CA 1-3 mg/mL, FIG. 27
Description: as §1

`O=C(O)CC(O)(CC(=O)O)C(=O)O` [citric acid] was tested, and the “effect of added citric acid on antibacterial activity of melatonin” value [1] was “reduces the antibacterial activity of melatonin”, the “growth of Pasteurella multocida” value [2] was “promotes the growth” and the “cytoplasmic vacuolization and irregular cell membrane caused by melatonin (TEM)” value [3] was “disappeared”. For the same molecule, the “melatonin-induced release of reducing sugar” value ([4]; FIG. 19) was “significantly reduces”, the “melatonin-induced release of proteins” value ([4]; FIG. 20) was “significantly reduces” and the “melatonin-induced release of AKP enzymes (alkaline phosphatase)” value ([4]; FIG. 21) was “significantly reduces”. The “melatonin-induced release of β-galactosidase” value ([4]; FIG. 22) was “significantly reduces”, the “melatonin-induced activity (release) of ATPase” value ([4]; FIG. 23) was “significantly reduces” and the “effect of exogenous citric acid on bacteriostatic effect of melatonin” value [5] was “can reduce the bacteriostatic effect of melatonin”. For the same molecule, the “effect of exogenous citric acid on bacteriostatic effect of melatonin” value [6] was “can reduce the bacteriostatic effect of melatonin”.
